Converted amounts (≈) assume the structure as drawn. Read-outs that look alike come from different tables or passages of the source.
Experiments:
[1] = test system: M. tuberculosis H37Rv expressing GFP (H37Rv::pJKD6); test: microbe, parasite or virus in culture; type: cell-based, Mycobacterium tuberculosis; conditions: Mycobacterium tuberculosis, H37RV, 168 h; read-out: MIC98 M. tuberculosis (GFP)
[2] = test system: Staphylococcus aureus (SH1000); test: microbe, parasite or virus in culture; type: cell-based; conditions: Staphylococcus aureus; 5 h incubation, resazurin readout; tested 300 to 2.3 µM; read-out: MIC90 S. aureus (REMA)
[3] = test system: M. tuberculosis H37Rv; test: microbe, parasite or virus in culture; type: cell-based, Mycobacterium tuberculosis; conditions: Mycobacterium tuberculosis, H37RV, 168 h, 7 days incubation, resazurin readout, tested 300 to 2.3 µM, read-out: MIC90 M. tuberculosis (REMA)
[4] = Cytotoxicity by live imaging (Hoechst 33342 / propidium iodide); type: cell-based; conditions: mouse
Description: The cytotoxicity of the compounds to BALB/3T3 cells was determined using live imaging following both Hoechst 33342 and propidium iodide staining. Briefly, BALB/3T3 cells were seeded in a 384-well plate and 24 h later, the compounds were added (0, 12.5, 25, 50, and 100 µM) to the culture medium, as well as Hoechst 33342 and propidium iodide (PI). Then, 24 h and 48 h after the compounds were added, live imaging was performed using an In Cell Analyzer 6000 (STP GE Healthcare, Glascow, UK). The cytotoxicity was defined based on the ratio of the population of dead or dying cells (propidium iodide staining) to the total cell population (Hoechst staining), as determined using Columbus software 2.9.1 (PerkinElmer Informatics, WA, USA). The compounds were tested in triplicate. Carfilzomib (500, 250, 140, and 60 nM) was used as the positive control in this assay.

[5] = Kinetic solubility in PBS by LC-MS/MS; type: physicochemical; conditions: for solubility at 24 h: kinetic from dmso stock; for fold higher solubility in PBS compared to parthenolide: relative to parthenolide
Description: The kinetic solubility was determined using LC–MS/MS analysis in PBS at pH 7.4. Briefly, a 10 mM 100% DMSO solution of the compound was diluted 50-fold either in PBS at pH 7.4 (in triplicate) or in DMSO in polypropylene tubes (n = 3 for PBS and n = 6 for DMSO). The tubes were gently shaken for 24 h at 21 °C. Then, the three PBS tubes and three of the six DMSO tubes were centrifuged for 5 min at 4000 rpm and filtered over 0.45 μm filters (Millex-LH Millipore). Then, 40 μL of each solution was diluted in 160 μL of MeCN and 40 µL of Milli-Q water and transferred to matrix tubes for the LC–MS/MS analysis. The solubility was determined according to the following formula: Solubility (μM) = (AUC (filtered PBS)/AUC (not filtered DMSO)) × 200. The test was validated if (AUC (not filtered DMSO) − AUC (filtered DMSO))/AUC (not filtered DMSO) ≤ 10%.

[6] = BALB/3T3 cells, 0, 12.5, 25, 50, 100 µM, imaging at 24 h and 48 h, read-out: Cytotoxicity Balb3T3 CC50
[7] = aqueous buffer, kinetic solubility, PBS pH 7.4, 24 h at 21 °C, from 10 mM DMSO solution diluted 50-fold, read-out: Solubility

## C=C1CC[C@H]2C(=C)C(=O)O[C@@H]2[C@@H]2O[C@]2(C)CC[C@H]1N(O)C(=O)Nc1ccccc1 [Compound 4, 1-hydroxy-1-[(1S,2S,4R,7R,11S)-4-methyl-8,12-dimethylene-13-oxo-3,14-dioxatricyclo[9.3.0.02,4]tetradecan-7-yl]-3-phenyl-urea]
[1]
  MIC: 9.4 to 19 µM (≈ 3.75 to 7.57 µg/mL)
[2]
  MIC90: > 300 µM
[3]
  MIC90: 19 to 38 µM (≈ 7.57 to 15.1 µg/mL)
[4]
  CC50: 25 µM
[5]; 21 °C, pH 7.4, aqueous buffer
  solubility at 24 h: 186 µM (≈ 74.1 µg/mL)

## C=C1CC[C@H]2C(=C)C(=O)O[C@@H]2[C@@H]2O[C@]2(C)CC[C@H]1N(O)C(=O)Nc1ccc(C)cc1 [Compound 5, 1-hydroxy-1-[(1S,2S,4R,7R,11S)-4-methyl-8,12-dimethylene-13-oxo-3,14-dioxatricyclo[9.3.0.02,4]tetradecan-7-yl]-3-(p-tolyl)urea]
[1]
  MIC: 19 µM (≈ 7.84 µg/mL)
[2]
  MIC90: > 300 µM
[3]
  MIC90: 19 to 38 µM (≈ 7.84 to 15.7 µg/mL)
[4]
  CC50: 12.5 µM
[5]; 21 °C, pH 7.4, aqueous buffer
  solubility at 24 h: 186 µM (≈ 76.7 µg/mL)

## C=C1CC[C@H]2C(=C)C(=O)O[C@@H]2[C@@H]2O[C@]2(C)CC[C@H]1N(O)C(=O)NCc1ccccc1 [Compound 6, 3-benzyl-1-hydroxy-1-[(1S,2S,4R,7R,11S)-4-methyl-8,12-dimethylene-13-oxo-3,14-dioxatricyclo [9.3.0.02,4]tetradecan-7-yl]urea]
[1]
  MIC: 19 to 38 µM (≈ 7.84 to 15.7 µg/mL)
[2]
  MIC90: > 300 µM
[3]
  MIC90: 38 to 75 µM (≈ 15.7 to 30.9 µg/mL)
[4]
  CC50: > 25 µM
[5]; 21 °C, pH 7.4, aqueous buffer
  solubility at 24 h: 196 µM (≈ 80.8 µg/mL)

## C=C1CC[C@H]2C(=C)C(=O)O[C@@H]2[C@@H]2O[C@]2(C)CC[C@H]1N(O)C(=O)Nc1ccc(OC)cc1 [Compound 7, 1-hydroxy-3-(4-methoxyphenyl)-1-[(1S,2S,4R,7R,11S)-4-methyl-8,12-dimethylene-13-oxo-3,14-dioxatricyclo[9.3.0.02,4]tetradecan-7-yl]urea]
[1]
  MIC: 19 µM (≈ 8.14 µg/mL)
[3]
  MIC90: 19 µM (≈ 8.14 µg/mL)
[4]
  CC50: 25 µM
[5]; 21 °C, pH 7.4, aqueous buffer
  solubility at 24 h: 184 µM (≈ 78.8 µg/mL)

## C=C1CC[C@H]2C(=C)C(=O)O[C@@H]2[C@@H]2O[C@]2(C)CC[C@H]1N(O)C(=O)Nc1ccc(F)cc1 [Compound 8, 3-(4-fluorophenyl)-1-hydroxy-1-[(1S,2S,4R,7R,11S)-4-methyl-8,12-dimethylene-13-oxo-3,14-dioxatricyclo[9.3.0.02,4]tetradecan-7-yl]urea]
[1]
  MIC: 19 µM (≈ 7.91 µg/mL)
[3]
  MIC90: 19 µM (≈ 7.91 µg/mL)
[4]
  CC50: > 25 µM
[5]; 21 °C, pH 7.4, aqueous buffer
  solubility at 24 h: 188 µM (≈ 78.3 µg/mL)
[5]
  fold higher solubility in PBS compared to parthenolide: 1.3 fold

## C=C1CC[C@H]2C(=C)C(=O)O[C@@H]2[C@@H]2O[C@]2(C)CC[C@H]1N(O)C(N)=O [Compound 9, 1-hydroxy-1-[(1S,2S,4R,7R,11S)-4-methyl-8,12-dimethylene-13-oxo-3,14-dioxatricyclo[9.3.0.02,4]tetradecan-7-yl]urea]
[1]
  MIC: 75 to 150 µM (≈ 24.2 to 48.4 µg/mL)
[3]
  MIC90: ~150 µM (≈ 48.4 µg/mL)
[4]
  CC50: > 100 µM
[5]; 21 °C, pH 7.4, aqueous buffer
  solubility at 24 h: > 200 µM
[5]
  fold higher solubility in PBS compared to parthenolide: 1.5 fold

## C=C1CC[C@H]2C(=C)C(=O)O[C@@H]2[C@@H]2O[C@]2(C)CC[C@H]1N(O)C(=O)Nc1ccc2c(c1)OCO2 [Compound 10, 3-(1,3-benzodioxol-5-yl)-1-hydroxy-1-[(1S,2S,4R,7R,11S)-4-methyl-8,12-dimethylene-13-oxo-3,14-dioxatricyclo[9.3.0.02,4]tetradecan-7-yl]urea]
[1]
  MIC: 19 µM (≈ 8.41 µg/mL)
[3]
  MIC90: 38 µM (≈ 16.8 µg/mL)
[4]
  CC50: 12.5 µM
[5]; 21 °C, pH 7.4, aqueous buffer
  solubility at 24 h: 182 µM (≈ 80.5 µg/mL)

## C=C1CC[C@H]2C(=C)C(=O)O[C@@H]2[C@@H]2O[C@]2(C)CC[C@H]1N(O)C(=O)NCCCOCC [Compound 11, 3-(3-ethoxypropyl)-1-hydroxy-1-[(1S,2S,4R,7R,11S)-4-methyl-8,12-dimethylene-13-oxo-3,14-dioxatricyclo[9.3.0.02,4]tetradecan-7-yl]urea]
[1]
  MIC: 150 µM (≈ 61.3 µg/mL)
[3]
  MIC90: 150 µM (≈ 61.3 µg/mL)
[4]
  CC50: > 100 µM
[5]; 21 °C, pH 7.4, aqueous buffer
  solubility at 24 h: 197 µM (≈ 80.5 µg/mL)

## C=C1CC[C@H]2C(=C)C(=O)O[C@@H]2[C@@H]2O[C@]2(C)CC[C@H]1N(O)C(=O)Oc1ccccc1 [Compound 17, Phenyl-N-hydroxy-N-[(1S,2S,4R,7R,11S)-4-methyl-8,12-dimethylene-13-oxo-3,14-dioxatricyclo[9.3.0.02,4]tetradecan-7-yl]carbamate]
[1]
  MIC: 38 µM (≈ 15.2 µg/mL)
[3]
  MIC90: 38 µM (≈ 15.2 µg/mL)
[4]; [6]
  CC50: 12.5 µM
[5]; [7]
  solubility at 24 h: 189 µM (≈ 75.5 µg/mL)

## C=C1CC[C@H]2C(=C)C(=O)O[C@@H]2[C@@H]2O[C@]2(C)CC[C@H]1N(O)C(=O)OCC(C)C [Compound 18, Isobutyl-N-hydroxy-N-[(1S,2S,4R,7R,11S)-4-methyl-8,12-dimethylene-13-oxo-3,14-dioxatricyclo[9.3.0.02,4]tetradecan-7-yl]carbamate]
[1]
  MIC: 19 µM (≈ 7.21 µg/mL)
[3]
  MIC90: 38 µM (≈ 14.4 µg/mL)
[4]
  CC50: 50 µM
[5]; 21 °C, pH 7.4, aqueous buffer
  solubility at 24 h: 190 µM (≈ 72.1 µg/mL)

## C=C1CC[C@H]2C(=C)C(=O)O[C@@H]2[C@@H]2O[C@]2(C)CC[C@H]1N(O)C(=O)OCC [Compound 19, Ethyl-N-hydroxy-N-[(1S,2S,4R,7R,11S)-4-methyl-8,12-dimethylene-13-oxo-3,14-dioxatricyclo[9.3.0.02,4]tetradecan-7-yl]carbamate]
[1]
  MIC: 75 µM (≈ 26.4 µg/mL)
[3]
  MIC90: 75 µM (≈ 26.4 µg/mL)
[4]
  CC50: > 12.5 µM
[5]; 21 °C, pH 7.4, aqueous buffer
  solubility at 24 h: 198 µM (≈ 69.6 µg/mL)

## C=C1CC[C@H]2C(=C)C(=O)O[C@@H]2[C@@H]2O[C@]2(C)CC[C@H]1N(O)C(=O)Oc1ccc2c(c1)OCO2 [Compound 20, 1,3-benzodioxol-5-yl-N-hydroxy-N-[(1S,2S,4R,7R,11S)-4-methyl-8,12-dimethylene-13-oxo-3,14-dioxatricyclo[9.3.0.02,4]tetradecan-7-yl]carbamate]
[1]
  MIC: 37.5 to 75 µM (≈ 16.6 to 33.3 µg/mL)
[3]
  MIC90: 75 µM (≈ 33.3 µg/mL)
[4]; [6]
  CC50: > 12.5 µM
[5]; [7]
  solubility at 24 h: 182 µM (≈ 80.7 µg/mL)

## C=C1CC[C@H]2C(=C)C(=O)O[C@@H]2[C@@H]2O[C@]2(C)CC[C@H]1N(O)C(=O)OCCOC [Compound 21, 2-methoxyethyl-N-hydroxy-N-[(1S,2S,4R,7R,11S)-4-methyl-8,12-dimethylene-13-oxo-3,14-dioxatricyclo[9.3.0.02,4]tetradecan-7-yl]carbamate]
[1]
  MIC: 150 to 300 µM (≈ 57.2 to 114 µg/mL)
[3]
  MIC90: 150 µM (≈ 57.2 µg/mL)
[4]
  CC50: 100 µM
[5]; 21 °C, pH 7.4, aqueous buffer
  solubility at 24 h: > 200 µM

## C=C1CC[C@H]2C(=C)C(=O)O[C@@H]2[C@@H]2O[C@]2(C)CC[C@H]1N(O)C(=O)OC1CCOCC1 [Compound 22, Tetrahydropyran-4-yl-N-hydroxy-N-[(1S,2S,4R,7R,11S)-4-methyl-8,12-dimethylene-13-oxo-3,14-dioxatricyclo[9.3.0.02,4]tetradecan-7-yl]carbamate]
[1]
  MIC: 38 µM (≈ 15.5 µg/mL)
[3]
  MIC90: 75 µM (≈ 30.6 µg/mL)
[4]
  CC50: > 50 µM
[5]; 21 °C, pH 7.4, aqueous buffer
  solubility at 24 h: 193 µM (≈ 78.6 µg/mL)

## C=C1CC[C@H]2C(=C)C(=O)O[C@@H]2[C@@H]2O[C@]2(C)CC/C1=N/O [Compound 23, (1S,2S,4R,7Z,11S)-7-hydroxyimino-4-methyl-8,12-dimethylene-3,14-dioxatricyclo[9.3.0.02,4] tetradecan-13-one]
[2]
  MIC90: > 300 µM
[5]; 21 °C, pH 7.4, aqueous buffer
  solubility at 24 h: 186 µM (≈ 51.6 µg/mL)

## C/C1=C\CC[C@@]2(C)O[C@H]2[C@H]2OC(=O)C(C)[C@@H]2CC1 (stereo partly drawn) [Compound 26, (1S,2S,4R,7E,11S)-4,8,12-trimethyl-3,14-dioxatricyclo[9.3.0.02,4]tetradec-7-en-13-one]
[1]
  MIC: 300 µM (≈ 75.1 µg/mL)
[3]
  MIC90: 300 µM (≈ 75.1 µg/mL)

## CO[C@H]1/C=C/O[C@@]2(C)Oc3c(C)c(O)c4c(O)c(c(/C=N/N5CCN(C)CC5)c(O)c4c3C2=O)NC(=O)/C(C)=C\C=C\[C@H](C)[C@H](O)[C@@H](C)[C@@H](O)[C@@H](C)[C@H](OC(C)=O)[C@@H]1C [Rifampicin, reference compound]
[1]
  MIC: < 2.3 µM
[2]
  MIC90: < 2.3 µM
[3]
  MIC90: < 2.3 µM

— article PMC10744032, “Regioselective and Stereoselective Synthesis of Parthenolide Analogs by Acyl Nitroso-Ene Reaction and Their Biological Evaluation against Mycobacterium tuberculosis” (International Journal of Molecular Sciences, 2023)
